Drawing on ChEMBL document CHEMBL5441142, “Probing the Merck KGaA Open Global health library for novel starting points for anti-schistosomal drug discovery” (2024), this text covers In vitro activity for 57 compounds.

Active and inactive are the calls of the source. No rule for the calls is given here.

The subject of the test is Schistosoma mansoni. Nature of the test: In vitro activity screen on S. mansoni schistosomula at 10 uM. Compound-induced effects were assessed by quantifying larva motility and phenotype using Roboworm. Format: functional, organism-based. More on the design: test concentration 10 uM, temperature 37 degree C, time incubation 72 h. Conditions: Puerto Rican.
For the compound `COc1ccc(N2C(=O)c3ccccc3NC23CN(Cc2cccc(C)c2)C3)cc1`, the In vitro activity entry is “inactive”. The result for `COCc1cc(-c2nc(-c3cccc(CN(C)CC(=O)O)c3)no2)ccc1-c1cccc(F)c1C` reads “inactive”. In the case of `CCC(C)Oc1ccc(-c2nc(-c3cc(F)cc(CN(C)CCC(=O)O)c3)no2)cc1COC` (configuration not stated), the In vitro activity entry was “inactive”. The result for `O=S(=O)(Nc1ccc2nsnc2c1)c1ccccc1-c1ccccc1` reads “inactive”; that for `Cc1cc(-c2cccs2)c(S(C)(=O)=O)cc1C(=O)N=C(N)N`, “inactive”; that for `CC1=C(C(=O)N2CCc3ccc(C(F)(F)F)cc3C2)C2(CCN(C3CCOC(C)C3)CC2)OC1=O` (configuration not stated), “inactive”.

For `COc1cc(OC)cc(-c2cn3cc(C(=O)NCCc4ccc(OC)cc4OC)ccc3n2)c1`, the In vitro activity entry is “inactive”. Take `COc1cc(OC)c(CCNC(=O)c2cn3cc(-c4cc(OCC(O)CO)ccc4OC)nc3s2)c(OC)c1` (configuration not stated): the In vitro activity result was “inactive”.

Take `C1=C(c2ccccc2)CCN(CCCCc2c[nH]c3ccccc23)C1`: the In vitro activity result is “inactive”. `CCOc1cc(C2=NN(C(=O)c3ccc(NC(=O)c4cccnc4)cc3)CCC2)ccc1OC`: the In vitro activity result was “inactive”. For `CC1=C(C(=O)N2Cc3cc(C(F)(F)F)ccc3C(C)(C)C2)C2(CCN(C3CCOCC3)CC2)OC1=O`, the In vitro activity entry was “inactive”. `COCc1cc(-c2nc(-c3ccc(C(=O)O)c(F)c3)no2)ccc1-c1cc(F)ccc1OC`: the In vitro activity entry is “inactive”.

Turning to `CC1=C(C(=O)N2CCc3ncc(C(F)(F)F)cc3C2)C2(CCN([C@H]3CC[C@@H](O)CC3)CC2)OC1=O`, the In vitro activity result was “inactive”. For the compound `CC(Sc1nc(-c2ccc(Cl)cc2)c(-c2ccc(Cl)cc2)o1)C(=O)NCC(=O)O` (configuration not stated), the In vitro activity result is “inactive”.

With `COc1cc(SC(C)C#N)ccc1-c1nc2ccncc2[nH]1` (configuration not stated), the In vitro activity result was “inactive”. With `CC(/C=C/c1cc(/C=C/C(C)=C/C(=O)O)cc(-c2ccc(C(F)(F)F)cc2)c1)=C\C(=O)O` the entry was “inactive”; with `O=C(Nc1ccc(Oc2ccncc2)cc1)Nc1cc(C(F)(F)F)ccc1-n1cncn1`, “inactive”.

Consider `COc1ccccc1CCN1CCC2(CC1)OC(=O)C(C)=C2C(=O)N1CCc2ccc(C(F)(F)F)cc2C1`, for which the In vitro activity entry is “inactive”. The result for `COCc1cc(-c2nc(-c3ccc(CN(C)CC(=O)O)cc3)no2)ccc1-c1ccccc1C` reads “inactive”; that for `CNC(=O)c1cc(Oc2ccc(NC(=O)Nc3cc(C(F)(F)F)ccc3-n3cncn3)cc2)ccn1`, “inactive”; that for `COCc1cc(-c2nc(-c3cccc(CN(C)CC(=O)O)c3)no2)ccc1-c1ccccc1C`, “inactive”.

In the case of `COc1cc([S+]([O-])C(C)C)ccc1-c1nc2ccncc2[nH]1` (configuration not stated), the In vitro activity entry was “inactive”. The result for `O=C(c1cc(-c2ccccn2)nc2ccc(Br)cc12)N1CCCC1` reads “inactive”; that for `COCc1cc(-c2nc(-c3ccc(CN(C)CCC(=O)O)cc3)no2)ccc1-c1ccccc1C`, “inactive”; that for `CC(C)(Sc1nc(-c2ccccc2)c(-c2ccccc2)s1)C(=O)O`, “inactive”. Consider `CC(c1cccc(-c2nnn[nH]2)c1)N(Cc1ccccc1)S(=O)(=O)c1ccc(Cl)cc1` (configuration not stated), for which the In vitro activity result is “inactive”. With `O=C(CCN1CCCCC1)c1ccc2[nH]c(=O)sc2c1` the entry was “inactive”; with `COc1cc(OC)c(CCNC(=O)c2cn3cc(-c4cc(OCC(=O)NCCO)ccc4OC)nc3s2)c(OC)c1`, “inactive”; with `CCCSc1cc(C)c(C(=O)N=C(N)N)cc1S(C)(=O)=O`, “inactive”. The result for `CC1=C(C(=O)N2CCc3c(F)cc(C(F)(F)F)cc3C2)C2(CCN(C3CCOCC3)CC2)OC1=O` reads “inactive”; that for `CCCc1nn(C)c2c(=O)[nH]c(-c3cc(S(=O)(=O)Oc4cccnc4C)ccc3OCC)nc12`, “inactive”; that for `O=C(O)CCC(=O)OCC1(c2ccc(Cl)cc2)OCC(c2ccccc2)(c2ccccc2)CO1`, “inactive”. The result for `Cc1cc(OC(C)(C)C)c(S(C)(=O)=O)cc1C(=O)N=C(N)N` reads “inactive”.

Regarding `CC1(C)Oc2ccc(C#N)cc2[C@@H](n2ccccc2=O)[C@]1(C)O`, the In vitro activity entry is “inactive”.

Take `CN(C)c1cccc2c(S(=O)(=O)Nc3ccc4nsnc4c3)cccc12`: the In vitro activity entry is “inactive”. The result for `CC1=C(C(=O)N2CCc3ccc(C(F)(F)F)cc3C2)C2(CCN(C3CCOC(C)(C)C3)CC2)OC1=O` (configuration not stated) reads “inactive”; that for `CCN1CCC2(CC1C)OC(=O)C(C)=C2C(=O)N1CCc2ccc(C(F)(F)F)cc2C1` (configuration not stated), “inactive”; that for `CC1=C(C(=O)N2CCc3ccc(C(F)(F)F)cc3C2)C2(CCN(C3CCOCC3)CC2)OC1=O`, “inactive”.

Take `O=C(Nc1ccc(CNc2ncnc3ccccc23)cc1)c1ccc(Cl)c(F)c1`: the In vitro activity result is “inactive”. The result for `Cc1cc(C2=CCCC2)c(S(C)(=O)=O)cc1C(=O)N=C(N)N` reads “inactive”.

With `COc1ccc(C(=O)N2CCC(C)(C)c3cc(C4=NNC(=O)SC4C)ccc32)cc1OC` (configuration not stated), the In vitro activity result is “inactive”.

In the case of `CC1SC(=O)NN=C1c1ccc2c(c1)CCCN2` (configuration not stated), the In vitro activity result is “inactive”. With `Cc1cc(C)c(S(C)(=O)=O)cc1C(=O)N=C(N)N` the entry was “inactive”; with `CC1=C(C(=O)N2CCN(c3cccc(C(F)(F)F)c3)CC2)C2(CCN(CCc3ccc(F)cc3)CC2)OC1=O`, “inactive”; with `Cc1cc(Oc2ccccc2)c(S(C)(=O)=O)cc1C(=O)N=C(N)N`, “inactive”.

Take `COc1nc(/C=C/c2nc3n(n2)CCCC3c2ccccc2C(F)(F)F)ccc1-n1cnc(C)c1` (configuration not stated): the In vitro activity result is “inactive”.

For the compound `CCCc1nn(C)c2c(=O)[nH]c(-c3cc(S(=O)(=O)n4ccc(O)cc4=O)ccc3OCC)nc12`, the In vitro activity entry is “inactive”.

As to `CCNC1=N[C@@H]2[C@@H](O)[C@H](O)[C@@H](Cn3cc(COc4cccc(Br)c4)nn3)O[C@@H]2S1`, the In vitro activity entry is “inactive”. On to `CCOc1cc(C2=NN(C(=O)c3ccc(NC(=O)c4ccc(OC)cc4)cc3)CCC2)ccc1OC`, for which the In vitro activity entry is “inactive”. The result for `CC1=C(C(=O)N2CCc3ccc(C(F)(F)F)cc3C2)C2(CCN(C3CCCC3)CC2)OC1=O` reads “inactive”.

Turning to `Cc1ccc(CNc2nc(N3CCC(C(=O)O)CC3)nc3sc4c(c23)CCCC4)cc1`, the In vitro activity result is “inactive”. With `O=C(C1CCCCC1)N1CC(=O)N2CCc3ccccc3[C@H]2C1` the entry was “inactive”; with `COc1cc([S+](C)[O-])ccc1-c1nc2cnccc2[nH]1` (configuration not stated), “inactive”; with `COc1cc(C(=O)Nc2cn(Cc3ccc(Cl)c(Cl)c3)nn2)ccc1-n1cnc(C)c1`, “inactive”.

In the case of `O=C(O)c1ccc(-c2nc(NCc3ccccc3)c3c4c(sc3n2)CCCC4)cc1`, the In vitro activity result was “inactive”.

For `O=C(O)[C@H]1CC[C@H](c2nc(NCc3ccc4c(c3)OCO4)c3c(n2)sc2ccccc23)CC1`, the In vitro activity result was “inactive”. The result for `COc1ccc(OC)c(Nc2nc3ccccc3nc2NS(=O)(=O)Cc2cccnc2)c1` reads “inactive”.
